Measured values reported in EP2303842B1, “A process for producing lercanidipine.HCl form V” (Recordati Ireland Limited, priority 2008, dated 2010).
Where a name gives a salt, the structure may show the parent alone.

Assay: Solubility determination in water, HCl 0.1 M and organic solvents (shaken suspensions, HPLC assay of the supernatant)
Assay type: physicochemical
Conditions: 25°C, shaken 24h, 1440 min
Method: For this purpose, solubility determination at RT of FI, FII and FV in water, HCl 0.1 M and some organic solvents has been carried out as described in the experimental section.
Suspensions in different solvents, ranging in concentration from 20 mg/mL to 400 mg/mL, depending on the solubility, were shaken with thermomixer at 25°C, […] for 24h. An aliquot was taken, centrifuged for 5 minutes at 13000 rpm, the supernatant was transferred in HPLC vials, opportunely diluted and assayed. For aqueous solvent the supernatant was further filtered with a 0.2 µm PVDF filter and centrifuged for 5 minutes at 8000 rpm.
Solubility data (mg/mL) obtained are gathered in Table 2. Table 2: solubility
HPLC-DAD: HP 1050 separation module controlled by HP Chem-station. Method:
Standard and calibration: automatic three point calibration (0.5 mg/mL, 1.0 mg/mL, 1.5 mg/mL), including the zero, using HP Chem-station program.

[1] = solvent H2O, supernatant filtered 0.2 µm PVDF
[2] = solvent HCl 0.1M, supernatant filtered 0.2 µm PVDF

Row | Solubility (solvent ACN) | Solubility (solvent EtOH) | Solubility [1] | Solubility [2] | Solubility (solvent MeOH) | Solubility (solvent acetone) | SMILES
1 | 13800 µg/mL | 28200 µg/mL | 1600 µg/mL | 200 µg/mL | 263900 µg/mL | 9400 µg/mL | COC(=O)C1=C(C)NC(C)=C(C(=O)OC(C)(C)CN(C)CCC(c2ccccc2)c2ccccc2)C1c1cccc([N+](=O)[O-])c1 (single isomer, unassigned) [FI, Lercanidipine.HCl Form I]
2 | 4800 µg/mL | 10500 µg/mL | 300 µg/mL | 9 µg/mL | 83900 µg/mL | 2700 µg/mL | COC(=O)C1=C(C)NC(C)=C(C(=O)OC(C)(C)CN(C)CCC(c2ccccc2)c2ccccc2)C1c1cccc([N+](=O)[O-])c1 (single isomer, unassigned) [FII, Lercanidipine.HCl Form II]
3 | 26100 µg/mL | 46720 µg/mL | 960 µg/mL | 70 µg/mL | 221900 µg/mL | 18500 µg/mL | COC(=O)C1=C(C)NC(C)=C(C(=O)OC(C)(C)CN(C)CCC(c2ccccc2)c2ccccc2)C1c1cccc([N+](=O)[O-])c1 (single isomer, unassigned) [FV, Lercanidipine.HCl Form V]
